Measurements from patent publication US20120265121A1, “PHTHALOCYANINE-BASED ANTIFUNGAL AGENTS” (CASE WESTERN RESERVE UNIVERSITY, priority 2011, published 2012).

Experiments:
[1] = test system: C. albicans (strain SC-5134); test: FITC-labeled Annexin V staining of protoplasts (phosphatidylserine externalization); format: cell-based, Candida albicans; details: 1.0 μM Pc 4-PDT, 2.0 J/cm^2, within 4 to 5 hours of PDT
Procedure: Cells were then incubated for 4 hr before staining with FITC-labeled Annexin V. FIG. 4(a) provides confocal images of FITC-labeling of cells that had been treated with H2O2 or Pc 4-PDT. Scale bar, 20 μm. FIG. 4(b) provides a bar graph showing the results. For each experiment over 50-100 protoplasts cells were counted per sample. […] Cells were counted by eye using a Zeiss AxiovertTM S100 inverted epifluorescence microscope. Values represent the mean±S.E. from at least three independent experiments. […] Apoptosis Analyses: (A) FITC-labeled Annexin V staining-To assess the externalization of phosphatidylserine, protoplasts of C. albicans were stained with FITC-labeled Annexin V using the Annexin V-FLUOS staining kit (Roche, Germany) with minor modifications. Madeo et al., J Cell Biol 139:729-734 (1997); Park et al., Biochem Biophys Res Commun 394:170-172 (2010). Briefly, control and treated cells were washed three times with 1× PBS before incubating at 37° C. for 30 min in a protoplasting solution (50 mM KH2PO4, 5 mM EDTA and 50 mM DTT). Then cells were digested at 37° C. for 45 min in an enzyme solution (50 mM K2HPO4, 40 mM 2-mercaptoethanol, 3 μg/mL Chitinase, 1.8 μg/mL […], 0.15 mg/mL Zymolyase and 2.4 M sorbitol). 1× PBS was added to each sample and incubated for 30 min at room temperature in all experiments. Protoplasts were then incubated with 100 μL of Annexin V-FLUOS labeling solution for 15 min at 25° C. FITC-labeled Annexin V fluorescence was detected by both widefield (Leica DMI6000B microscope; Leica Microsystems, Inc., Bannockburn, Ill., USA) and confocal fluorescence microscopy.

[2] = format: in vitro ADME, human
From the text: Because drug penetration into and through the nail plate is always a challenge in the treatment of onychomycosis, the nail absorption of topically applied Pc 4 was also investigated. […] Considering that these samples were healthy nails, it appears that diseased/dystrophic nails whose barrier functions have been compromised may even have better Pc 4 absorption. Nonetheless, in the clinical protocol, the inventors specified that Pc 4 will be applied not only on the nail plate but also on the exposed subungual tissue and periungual area.

[3] = test system: C. albicans (strain SC-5134); test: Chromatin condensation by confocal microscopy; format: cell-based, Candida albicans; details: highest dose of Pc 4-PDT or peroxide, 24 hr after treatment
Procedure: Confocal Microscopy: To investigate the uptake and localization of Pc 4, cells in standard growth medium plus 10% Fetal Bovine Serum (FBS) were loaded with 0.2 μM Pc 4 and incubated for 16 to 18 hr. Thirty minutes prior to imaging Pc 4, 50 nM MitoTracker Red (Invitrogen, Carlsbad, Calif., USA) or 50 μg/mL AlexaFluor 488-conjugated Concanavalin (Con) A (Invitrogen, Carlsbad, Calif., USA) and/or 10 μg/mL Hoechst 33342 (Invitrogen, Carlsbad, Calif., USA) was loaded onto cells. Five to 10 μL of stained cells were placed on a slide with a glass coverslip and all images acquired using an UltraVIEW VoX spinning disk confocal system (PerkinElmer, Waltham, Mass., USA), which was mounted on a Leica DMI6000B microscope (Leica Microsystems, Inc., Bannockburn, Ill., USA) equipped with a HCX PL APO 100×/1.4 oil immersion objective. Confocal images of Pc 4 fluorescence, MitoTracker Red, ConA (or FITC-labeled Annexin V) and Hoechst 33342 were collected using solid-state diode lasers, with 640-nm, 561-nm, 488-nm and 405-nm excitation light, respectively, and with appropriate emission filters.

T. rubrum [4] = test: XTT reduction assay after Pc 4-PDT; format: cell-based, Trichophyton rubrum
Procedure: (§1) Terbinafine sensitive (23013) and resistant (MRL666) strains of T. rubrum were grown onto Sabouraud potato agar plate for at least 24 hours at 28° C. Microconidia were separated from most of the hyphae form before treating with Pc 4-PDT.

[5] = topical application; cited from earlier work
[6] = test system: C. albicans (strain SC-5134); test: DNA fragmentation by agarose gel electrophoresis; format: cell-based, Candida albicans
Procedure: Subsequently, C. albicans total chromosomal DNA was extracted using the MasterPure™ Yeast DNA Purification Kit (Epicentre Biotechnologies, Madison, Wis., USA) per the manufacturer's protocol. Extracted DNA concentrations were determined with a spectrophotometer (Nanodrop™ 3000, ThermoFisher Scientific, Waltham, Mass., USA) at a wavelength range of 260-280 nm. DNA (3.0 μg) was loaded onto a 1.0% (w/v) agarose gel (Bioexpress, Kaysbille, Utah, USA) impregnated with ethidium bromide (ThermoFisher, Waltham, Mass., USA) and subjected to electrophoresis. The gel was subsequently visualized using a UV transilluminator (VersaDoc™, Bio-Rad, Hercules, Calif., USA).

T. rubrum [7] = test: Turbidity growth assay of microconidia after Pc 4-PDT; format: cell-based, Trichophyton rubrum; details: Pc 4 up to 2 μM, 2.0 J/cm^2
Procedure: as §1

[8] = terbinafine resistant strain MRL666
[9] = terbinafine sensitive strain 23013

## CN(C)CCC[Si](C)(C)O[Si]1(O)n2c3c4ccccc4c2N=C2N=C(N=c4c5ccccc5c(n41)=NC1=NC(=N3)c3ccccc31)c1ccccc12 (stereo not shown) [Pc 4, HOSiPcOSi(CH3)2(CH2)3N(CH3)2]
[1]
  Annexin V positive cells: 20%
[2]
  Pc 4 fluorescence within the nail plate: significant amount of Pc 4 fluorescence can be detected within the nail plate
[3]
  chromatin condensation: detected
T. rubrum [4]; [8]
  metabolic activity (XTT): attenuates following Pc 4-PDT
T. rubrum [4]; [9]
  metabolic activity (XTT): attenuates following Pc 4-PDT
[5]
  penetration through stratum corneum and epidermis: penetrate through the stratum corneum and epidermis
[6]; 0.4 μM Pc 4-PDT
  DNA fragmentation: clear evidence of DNA degradation
[6]; 0.6 μM Pc 4-PDT
  DNA fragmentation: matched that of the hydrogen peroxide positive control
T. rubrum [7]; [8]
  growth of microconidia: inhibited by Pc 4-PDT in a dose response fashion
T. rubrum [7]; [9]
  growth of microconidia: inhibited by Pc 4-PDT in a dose response fashion
